Source: paper PMC7549094 (Journal of Medicinal Chemistry, 2020)

What was measured:
L. donovani = experiment: murine model of visceral leishmaniasis, liver parasite burden by qPCR; type: in vivo; details: mice infected with L. donovani; 1 mg/kg b.i.d. PO, 8 days
Text: Formulation of study drugs for in vivo efficacy experiments. LXE408 administered to mice during efficacy experiments was formulated as a suspension in distilled water containing 0.5% methylcellulose and 0.5% Tween-80 (mouse model of visceral leishmaniasis) or hydroxypropylcellulose and Tween-80 (mouse models of cutaneous leishmaniasis). Miltefosine was formulated as a solution in distilled water containing 0.5% methylcellulose and 0.5% Tween-80.
Mouse model of visceral leishmaniasis. Female BALB/c mice (6-8 weeks old) were infected by tail vein injection with 4x 107 L. donovani MHOM/ET/67/HU3 splenic amastigotes. Seven days after infection, animals were orally dosed for 8 days with vehicle (0.5% MC/0.5% Tween-80 in distilled water), miltefosine (12 mg/kg once-daily), or LXE408 (twice-daily). At the end of treatment, liver samples were collected and L. donovani parasite burdens were quantified by qPCR as follows. L. donovani genomic DNA was extracted from drug-treated mice livers using the DNeasy Blood and Tissue Kit (Qiagen). Two types of DNA were quantified in parallel using the TaqMan assays for L. donovani major surface

[1] = pharmacokinetics, summary across preclinical species; type: in vivo, rat, dog, cynomolgus monkey
CYP2D15 = CYP2D15 (Canis lupus familiaris, UniProt Q29473); details: panel of dog recombinant CYP enzymes; 1 µM, 30 min
hr V1a = hr V1a (Homo sapiens, UniProt P37288); experiment: receptor profile (Table S4); type: binding
Sequence of hr V1a (P37288 whole entry): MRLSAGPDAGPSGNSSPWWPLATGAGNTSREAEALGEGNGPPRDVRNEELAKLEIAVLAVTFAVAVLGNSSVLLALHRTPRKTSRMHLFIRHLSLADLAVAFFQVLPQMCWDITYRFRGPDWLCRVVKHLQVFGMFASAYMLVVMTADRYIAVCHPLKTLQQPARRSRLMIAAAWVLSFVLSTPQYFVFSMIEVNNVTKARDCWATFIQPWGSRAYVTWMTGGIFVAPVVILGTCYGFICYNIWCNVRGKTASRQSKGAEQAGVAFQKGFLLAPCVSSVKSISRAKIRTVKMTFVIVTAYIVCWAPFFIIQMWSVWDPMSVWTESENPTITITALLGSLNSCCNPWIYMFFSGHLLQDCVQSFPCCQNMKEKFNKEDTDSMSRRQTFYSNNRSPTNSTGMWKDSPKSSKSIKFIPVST

hr D1 ag = hr D1 ag (Homo sapiens, UniProt P21728); experiment: receptor profile (Table S4); type: biochemical
Sequence of hr D1 ag (P21728 whole entry): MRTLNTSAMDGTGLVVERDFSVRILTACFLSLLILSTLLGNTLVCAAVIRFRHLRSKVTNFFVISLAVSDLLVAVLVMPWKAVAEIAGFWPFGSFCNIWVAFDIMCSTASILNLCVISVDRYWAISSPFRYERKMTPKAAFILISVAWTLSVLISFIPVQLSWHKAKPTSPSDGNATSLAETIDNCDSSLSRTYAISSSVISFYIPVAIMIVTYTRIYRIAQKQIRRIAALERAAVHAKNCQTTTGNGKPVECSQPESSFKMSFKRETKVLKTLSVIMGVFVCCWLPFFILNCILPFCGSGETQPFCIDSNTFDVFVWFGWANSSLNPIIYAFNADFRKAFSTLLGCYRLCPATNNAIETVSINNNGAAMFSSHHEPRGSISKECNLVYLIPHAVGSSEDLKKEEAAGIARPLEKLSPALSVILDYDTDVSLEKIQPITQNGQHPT

hr 5-HT1A antag = target: T1, hr 5-HT1A antag (Homo sapiens, UniProt P08908); experiment: receptor profile (Table S4); type: biochemical
T1 sequence (P08908 1-422): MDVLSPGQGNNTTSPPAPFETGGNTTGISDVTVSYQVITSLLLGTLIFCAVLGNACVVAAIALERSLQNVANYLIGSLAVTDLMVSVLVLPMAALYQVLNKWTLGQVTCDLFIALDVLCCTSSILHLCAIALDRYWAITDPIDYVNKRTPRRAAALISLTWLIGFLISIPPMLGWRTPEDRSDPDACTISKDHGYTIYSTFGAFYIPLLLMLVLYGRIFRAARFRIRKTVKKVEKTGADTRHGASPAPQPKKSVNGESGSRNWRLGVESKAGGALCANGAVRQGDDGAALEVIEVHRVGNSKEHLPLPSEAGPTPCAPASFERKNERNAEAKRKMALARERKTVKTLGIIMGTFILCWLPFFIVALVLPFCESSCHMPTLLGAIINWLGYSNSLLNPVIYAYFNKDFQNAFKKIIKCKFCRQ

hr PPARg antag = target: T2, hr PPARg antag (Homo sapiens, UniProt P37231); experiment: receptor profile (Table S4); type: biochemical
T2 sequence (P37231 1-505): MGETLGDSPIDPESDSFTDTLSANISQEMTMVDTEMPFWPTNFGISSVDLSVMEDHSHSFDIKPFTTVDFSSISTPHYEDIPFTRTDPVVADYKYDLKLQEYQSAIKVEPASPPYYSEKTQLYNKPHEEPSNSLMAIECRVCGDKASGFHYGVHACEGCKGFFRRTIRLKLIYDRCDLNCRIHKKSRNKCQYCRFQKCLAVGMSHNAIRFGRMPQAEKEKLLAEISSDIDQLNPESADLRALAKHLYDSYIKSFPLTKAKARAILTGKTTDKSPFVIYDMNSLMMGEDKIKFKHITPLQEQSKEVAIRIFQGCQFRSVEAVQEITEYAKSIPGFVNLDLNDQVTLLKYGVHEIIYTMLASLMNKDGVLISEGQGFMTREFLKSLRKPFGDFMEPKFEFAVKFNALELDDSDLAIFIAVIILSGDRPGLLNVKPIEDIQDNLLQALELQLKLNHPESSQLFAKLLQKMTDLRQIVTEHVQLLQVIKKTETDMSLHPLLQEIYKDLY

hr 5-HT2B antag = hr 5-HT2B antag (Homo sapiens, UniProt P41595); experiment: receptor profile (Table S4); type: biochemical
Sequence of hr 5-HT2B antag (P41595 whole entry): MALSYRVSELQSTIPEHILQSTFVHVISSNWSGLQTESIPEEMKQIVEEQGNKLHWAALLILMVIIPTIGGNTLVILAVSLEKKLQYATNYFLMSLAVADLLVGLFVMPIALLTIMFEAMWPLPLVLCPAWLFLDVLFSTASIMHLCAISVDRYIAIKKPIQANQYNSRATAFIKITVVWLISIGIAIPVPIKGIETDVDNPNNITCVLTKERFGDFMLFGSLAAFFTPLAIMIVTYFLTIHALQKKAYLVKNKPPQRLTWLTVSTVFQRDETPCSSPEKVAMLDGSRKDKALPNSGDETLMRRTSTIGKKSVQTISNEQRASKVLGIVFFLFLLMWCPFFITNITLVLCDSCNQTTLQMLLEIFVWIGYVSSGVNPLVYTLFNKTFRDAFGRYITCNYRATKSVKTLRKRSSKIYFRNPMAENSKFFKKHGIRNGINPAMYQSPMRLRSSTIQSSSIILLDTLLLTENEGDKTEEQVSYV

hr Mot = hr Mot (Homo sapiens, UniProt O43193); experiment: receptor profile (Table S4); type: binding
Sequence of hr Mot (O43193 whole entry): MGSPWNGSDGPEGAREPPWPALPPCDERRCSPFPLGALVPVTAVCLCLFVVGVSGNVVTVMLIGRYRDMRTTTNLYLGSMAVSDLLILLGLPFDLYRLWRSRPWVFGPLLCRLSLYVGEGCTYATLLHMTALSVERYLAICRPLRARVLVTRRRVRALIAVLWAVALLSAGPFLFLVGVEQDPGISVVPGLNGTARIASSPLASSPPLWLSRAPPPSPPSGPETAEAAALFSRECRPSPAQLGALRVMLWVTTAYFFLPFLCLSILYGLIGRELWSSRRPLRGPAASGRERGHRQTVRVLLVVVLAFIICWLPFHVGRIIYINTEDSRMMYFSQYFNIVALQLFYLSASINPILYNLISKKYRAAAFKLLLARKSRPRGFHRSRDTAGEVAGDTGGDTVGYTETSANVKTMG

hr PR antag = target: T3, hr PR antag (Homo sapiens, UniProt P06401); experiment: receptor profile (Table S4); type: biochemical
T3 sequence (P06401 1-933): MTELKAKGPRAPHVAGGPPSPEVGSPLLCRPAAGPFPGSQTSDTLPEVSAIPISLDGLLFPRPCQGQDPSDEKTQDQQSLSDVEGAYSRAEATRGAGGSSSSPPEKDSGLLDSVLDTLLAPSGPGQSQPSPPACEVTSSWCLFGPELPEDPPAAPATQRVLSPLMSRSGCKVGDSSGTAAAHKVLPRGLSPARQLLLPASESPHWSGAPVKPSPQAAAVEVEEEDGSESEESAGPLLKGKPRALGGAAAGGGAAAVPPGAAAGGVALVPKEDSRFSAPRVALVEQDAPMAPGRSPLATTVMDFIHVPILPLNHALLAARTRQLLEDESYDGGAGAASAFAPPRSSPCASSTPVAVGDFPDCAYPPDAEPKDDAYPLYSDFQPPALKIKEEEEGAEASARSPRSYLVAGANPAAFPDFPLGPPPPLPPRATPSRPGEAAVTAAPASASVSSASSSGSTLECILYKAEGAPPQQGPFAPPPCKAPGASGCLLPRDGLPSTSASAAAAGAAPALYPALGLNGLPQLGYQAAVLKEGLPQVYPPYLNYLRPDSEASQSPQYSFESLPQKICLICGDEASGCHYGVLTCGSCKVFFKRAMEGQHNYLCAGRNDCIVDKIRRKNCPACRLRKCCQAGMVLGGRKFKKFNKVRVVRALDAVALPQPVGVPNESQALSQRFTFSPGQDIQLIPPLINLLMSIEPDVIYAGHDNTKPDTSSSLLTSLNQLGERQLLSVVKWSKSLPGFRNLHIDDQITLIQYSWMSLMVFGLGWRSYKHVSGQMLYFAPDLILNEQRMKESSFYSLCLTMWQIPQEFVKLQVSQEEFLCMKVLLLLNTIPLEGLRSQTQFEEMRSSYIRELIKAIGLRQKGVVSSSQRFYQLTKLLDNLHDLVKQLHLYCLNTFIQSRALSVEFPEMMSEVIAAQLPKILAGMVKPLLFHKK

hr ACES = hr ACES (Homo sapiens, UniProt P22303); experiment: receptor profile (Table S4); type: biochemical
Sequence of hr ACES (P22303 32-614): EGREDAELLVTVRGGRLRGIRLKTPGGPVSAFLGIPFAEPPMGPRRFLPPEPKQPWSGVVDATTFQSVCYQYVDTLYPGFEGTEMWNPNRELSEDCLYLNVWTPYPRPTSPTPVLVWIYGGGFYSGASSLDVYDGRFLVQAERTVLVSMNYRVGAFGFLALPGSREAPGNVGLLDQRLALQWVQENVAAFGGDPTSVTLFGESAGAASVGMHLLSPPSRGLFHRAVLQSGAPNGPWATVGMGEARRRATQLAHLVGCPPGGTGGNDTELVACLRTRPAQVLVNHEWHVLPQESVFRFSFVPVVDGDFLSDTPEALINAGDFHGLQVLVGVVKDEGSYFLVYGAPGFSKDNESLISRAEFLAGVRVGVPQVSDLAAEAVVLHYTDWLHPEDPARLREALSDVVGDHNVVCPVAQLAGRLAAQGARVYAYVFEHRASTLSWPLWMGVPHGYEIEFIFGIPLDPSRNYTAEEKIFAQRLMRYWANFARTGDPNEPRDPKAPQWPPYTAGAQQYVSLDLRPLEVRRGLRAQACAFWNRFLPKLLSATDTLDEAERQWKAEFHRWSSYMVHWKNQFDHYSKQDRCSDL

PXR = PXR (Homo sapiens, UniProt O75469); experiment: receptor profile (Table S4); details: human
Sequence of PXR (O75469 whole entry): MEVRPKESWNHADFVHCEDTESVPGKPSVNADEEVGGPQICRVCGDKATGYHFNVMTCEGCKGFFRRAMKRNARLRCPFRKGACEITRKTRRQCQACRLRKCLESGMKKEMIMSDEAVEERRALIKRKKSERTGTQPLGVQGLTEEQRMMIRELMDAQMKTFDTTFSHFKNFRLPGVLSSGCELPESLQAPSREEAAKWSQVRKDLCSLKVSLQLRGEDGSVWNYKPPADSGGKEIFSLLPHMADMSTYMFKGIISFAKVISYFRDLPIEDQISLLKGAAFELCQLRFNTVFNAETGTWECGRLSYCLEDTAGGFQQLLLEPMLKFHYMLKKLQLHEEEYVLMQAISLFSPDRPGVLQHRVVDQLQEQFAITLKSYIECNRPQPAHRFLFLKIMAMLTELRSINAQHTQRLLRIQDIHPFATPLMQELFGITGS

hr PXR antag = hr PXR antag (Homo sapiens, UniProt O75469); experiment: receptor profile (Table S4); details: hr PXR antag
Sequence of hr PXR antag (O75469 whole entry): as above

Sequence of CYP2D15 (Q29473 whole entry): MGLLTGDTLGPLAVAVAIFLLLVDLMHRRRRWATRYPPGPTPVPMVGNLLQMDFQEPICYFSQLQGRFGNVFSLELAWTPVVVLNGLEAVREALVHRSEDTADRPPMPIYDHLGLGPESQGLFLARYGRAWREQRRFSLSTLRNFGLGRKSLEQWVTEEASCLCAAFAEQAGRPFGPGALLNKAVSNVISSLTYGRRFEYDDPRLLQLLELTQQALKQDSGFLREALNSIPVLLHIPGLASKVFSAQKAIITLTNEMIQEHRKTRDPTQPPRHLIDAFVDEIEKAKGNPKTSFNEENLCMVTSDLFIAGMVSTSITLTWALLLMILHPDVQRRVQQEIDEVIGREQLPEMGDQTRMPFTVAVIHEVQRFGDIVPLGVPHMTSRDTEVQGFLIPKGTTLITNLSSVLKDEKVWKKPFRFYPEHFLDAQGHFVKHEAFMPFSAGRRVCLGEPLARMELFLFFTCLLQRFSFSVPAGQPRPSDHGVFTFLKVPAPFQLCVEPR

## Cc1nc(C)c(C(=O)Nc2ccc(F)c(-c3nc4ncc(-c5ncccc5C)cn4n3)c2)o1 [compound 1, N-(4-Fluoro-3-(6-(3-methylpyridin-2-yl)-[1,2,4]triazolo[1,5-a]pyrimidin-2-yl)phenyl)-2,4-dimethyloxazole-5-carboxamide]
L. donovani
  reduction of parasite burden in the liver: 95%
[1]; Balb/c (mouse), Wistar (rat), beagle (dog), rat, dog, cynomolgus monkey, in vivo, po, across the tested species, conventional suspension formulations
  bioavailability: 27 to 67%
[1]; male, Balb/c (mouse), Wistar (rat), beagle (dog), rat, dog, cynomolgus monkey, in vivo, across species following IV administration, read-out: plasma terminal half-life
  half-life: 3 to 10 h
[1]; mouse, rat, and monkey, IV, fumarate salt
  CL as % of hepatic blood flow: 2–17 % of hepatic blood flow
CYP2D15
  metabolism by dog recombinant CYP enzymes: metabolized to 8 predominantly by CYP2D15
Hr V1a; hr V1a
  EC50/IC50: > 30 µM
Hr V1a; read-out: % inh/act @ 10 µM
  inhibition at 10 µM: 11%
Hr V1a; read-out: % inh/act @ 30 µM
  inhibition at 30 µM: 19%
Hr D1 ag; hr D1 ag
  EC50/IC50: > 30 µM
Hr D1 ag; read-out: % inh/act @ 10 µM
  inhibition at 10 µM: 6%
Hr D1 ag; read-out: % inh/act @ 30 µM
  inhibition at 30 µM: 2%
Hr 5-HT1A antag; hr 5-HT1A antag
  EC50/IC50: > 30 µM
Hr 5-HT1A antag; read-out: % inh/act @ 10 µM
  inhibition at 10 µM: 19%
Hr 5-HT1A antag; read-out: % inh/act @ 30 µM
  inhibition at 30 µM: 42%
Hr PPARg antag; hr PPARg antag
  EC50/IC50: > 30 µM
Hr PPARg antag; read-out: % inh/act @ 10 µM
  inhibition at 10 µM: -5%
Hr PPARg antag; read-out: % inh/act @ 30 µM
  inhibition at 30 µM: 16%
Hr 5-HT2B antag; hr 5-HT2B antag
  EC50/IC50: > 30 µM
Hr 5-HT2B antag; read-out: % inh/act @ 10 µM
  inhibition at 10 µM: 22%
Hr 5-HT2B antag; read-out: % inh/act @ 30 µM
  inhibition at 30 µM: 24%
Hr Mot; hr Mot
  EC50/IC50: > 30 µM
Hr Mot; read-out: % inh/act @ 10 µM
  inhibition at 10 µM: -3%
Hr Mot; read-out: % inh/act @ 30 µM
  inhibition at 30 µM: 3%
Hr PR antag; hr PR antag
  EC50/IC50: > 30 µM
Hr PR antag; read-out: % inh/act @ 10 µM
  inhibition at 10 µM: -11%
Hr PR antag; read-out: % inh/act @ 30 µM
  inhibition at 30 µM: -5%
Hr ACES; hr ACES
  EC50/IC50: > 30 µM
Hr ACES; read-out: % inh/act @ 10 µM
  inhibition at 10 µM: 16%
PXR
  inhibition at 10 µM: 26%
Hr PXR antag
  EC50/IC50: > 30 µM
